Experiments:
[1] = system: A404 cells; experiment: RA-induced SMC differentiation of A404 cells, immunocytochemical staining; assay type: cell-based, mouse
Protocol: The culture methods for SMC differentiation are outlined in FIG. 1. Cells were trypsinized and plated in a 10 cm dish in α-MEM containing 7.5% FBS and 1 μmol/L all trans-retinoic acid (Sigma, R2625) at a density of 10,000 cells/cm^2 (day 0). The culture medium was replaced once on day 2. On day 3, RA was removed from the culture medium. On day 4, cells were trypsinized and plated in two 10 cm dishes in the medium containing […] puromycin (Clontech). Except otherwise noted, samples for various analyses were prepared from cells treated with puromycin for two days. During puromycin selection, the medium was replaced every day.
Western blot analysis was performed as previously described Regan et al., J. Clin Invest. 2000; 106:1139-47. SM-MHC expression was assessed using a rabbit anti-chicken SM-MHC antibody (1:200,000, a gift from Dr. U. Groschel-Stewart). The specificity of this antibody for mouse MHC isoforms has been thoroughly characterized. The antibody was not reactive with nonmuscle MHCs in Western blotting. Immnunocytochemical staining was performed using Vectastain ABC-AP kit (Vector Laboratories). Antibodies and dilutions used were 1:1000 anti-SM α-actin antibody (Sigma), 1:500 anti-SM-MHC antibody, and 1:1000 anti-neuron-specific β-tubulin antibody (TUJ1, Berkeley Antibody Company).

[2] = system: P19 cells; experiment: RA-induced SMC differentiation of parental P19 cells; assay type: cell-based, mouse; conditions: within 4 days
Protocol: P19 cells were obtained from American Type Culture Collection (CRL-1825). Cells were maintained in α-minimum essential medium (α-MEM, Sigma, M0644) supplemented with 7.5% fetal bovine serum (FBS), 200 μg/ml L-glutamine and penicillin/streptomycin (Lifetechnologies). For transfection and differentiation induction experiments, P19 cell cultures less than 6 passages from the initial culture obtained from ATCC were used. […] Cells were trypsinized and plated in a 10 cm dish in α-MEM containing 7.5% FBS and 1 μmol/L all trans-retinoic acid (Sigma, R2625) at a density of 10,000 cells/cm^2 (day 0). The culture medium was replaced once on day 2. On day 3, RA was removed from the culture medium. On day 4, cells were trypsinized and plated in two 10 cm dishes in the medium containing 0.5 ng/ml puromycin (Clontech). Except otherwise noted, samples for various analyses were prepared from cells treated with puromycin for two days. During puromycin selection, the medium was replaced every day.

[3] = RA-treated A404 cells, after 2-days of puromycin treatment

CC1=C(/C=C/C(C)=C/C=C/C(C)=C/C(=O)O)C(C)(C)CCC1 [RA, all trans-retinoic acid]
α-actin negative neuron-like cells, fraction of total cell population ([1]; by 4 days after RA treatment, no puromycin): 10-20%
fraction of total A404 cell population stained positively for SM α-actin ([1]; by 4 days following RA treatment, no puromycin): > 80%
cells estimated to differentiate into SMCs [2]: 1-5%

COc1ccc(C[C@H](N)C(=O)N[C@H]2[C@@H](O)[C@H](n3cnc4c(N(C)C)ncnc43)O[C@@H]2CO)cc1 [puromycin]
cells positive for TUJ1 [1, 3]: < 0.1%
fraction of neuron-like cells [1, 3]: 5-10%
number of neuronal cells ([1]; RA-treated A404 cells, five-days of puromycin treatment): less than 5%
cells stained positively for both SM α-actin and SM-MHC ([1]; RA-treated A404 cells, following 2 to 5-days treatment with puromycin): > 90%
